What was measured:
human DP = biological target: T1, human DP (Homo sapiens, UniProt Q13258); assay: Human DP binding assay (3H-PGD2 binding, 293(128) cells); details: 2 nM 3H-PGD2 and 0 nM unlabeled PGD2, read-out: IC50 observed in DP binding assay
T1 construct: Full-length human DP cDNA was generated by PCR using human genomic DNA as a template; expressed in transfected cells
T1 sequence (Q13258 1-359): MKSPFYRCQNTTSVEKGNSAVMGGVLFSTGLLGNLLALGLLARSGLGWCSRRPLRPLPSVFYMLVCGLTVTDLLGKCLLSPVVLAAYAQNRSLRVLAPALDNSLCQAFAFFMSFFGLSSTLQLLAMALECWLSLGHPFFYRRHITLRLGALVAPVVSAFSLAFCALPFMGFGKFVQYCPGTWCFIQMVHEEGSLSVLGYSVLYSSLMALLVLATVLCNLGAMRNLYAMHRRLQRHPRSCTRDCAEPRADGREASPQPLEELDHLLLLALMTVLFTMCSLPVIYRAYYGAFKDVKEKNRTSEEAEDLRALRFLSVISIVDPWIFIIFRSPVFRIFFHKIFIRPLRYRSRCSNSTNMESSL
Method: Full-length human DP cDNA was generated by PCR using human genomic DNA as a template and subsequently cloned into pcDNA3.1(+) to generate a DP expression plasmid. The plasmid was transfected into 293 cells to generate a line of cells that have stable overexpression of human DP, termed 293(128) cells, essentially as described above for CRTH2. ^3H-PGD2 binding assays were performed using 293(128) cells as described above for CRTH2 except that each assay contained 350,000 cells, and 2 nM ^3H-PGD2 and 0 nM unlabeled PGD2.

human CRTH2 = biological target: T2, human CRTH2 (Homo sapiens, UniProt Q9Y5Y4); assay: Human CRTH2 binding assay (3H-PGD2 binding, 293(124) cells); details: 1 nM 3H-PGD2 and 30 nM unlabeled PGD2, read-out: IC50 observed in CRTH2 binding assay
T2 construct: Full-length human CRTH2 cDNA was generated by polymerase chain reaction (PCR); expressed in transfected cells
T2 sequence (Q9Y5Y4 1-395): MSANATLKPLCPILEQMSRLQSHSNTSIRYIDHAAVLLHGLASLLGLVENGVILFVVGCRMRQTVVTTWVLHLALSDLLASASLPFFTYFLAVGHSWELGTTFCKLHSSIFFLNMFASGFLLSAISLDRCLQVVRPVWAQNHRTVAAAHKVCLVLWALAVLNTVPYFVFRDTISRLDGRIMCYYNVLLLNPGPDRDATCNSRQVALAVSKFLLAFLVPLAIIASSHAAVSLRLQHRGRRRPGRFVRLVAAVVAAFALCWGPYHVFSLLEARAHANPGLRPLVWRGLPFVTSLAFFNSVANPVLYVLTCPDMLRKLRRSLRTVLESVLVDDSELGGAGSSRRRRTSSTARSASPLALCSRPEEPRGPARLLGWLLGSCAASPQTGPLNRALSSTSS
Method: Full-length human CRTH2 cDNA was generated by polymerase chain reaction (PCR) using human genomic DNA as template and subsequently cloned into pcDNA3.1(+) (Invitrogen Corp., Carlsbad, Calif.), generating a CRTH2 expression plasmid pHLT124. The plasmid was transfected into 293 cells, […], using LIPOFECTAMINE™ reagents (Invitrogen Corp., Carlsbad, Calif.). G418 ([…]) was added to the culture 48 h after transfection and cells were maintained under selection for 3 weeks to ensure that all surviving cells stably expressed CRTH2. These cells are labeled as 293(124) hereafter.
^3H-PGD2 binding assay was performed using 293(124) cells. In brief, cells were washed and suspended in RPMI containing 0.5% BSA and 20 mM HEPES. Each assay contained 25,000 cells, appropriate amount of test compound when necessary and a mixture of 1 nM ^3H-PGD2 (Amersham Biosciences, Piscataway, N.J.) and 30 nM of unlabeled PGD2 (Cayman Chemical Co., Ann Arbor, Mich.) in […] final volume. The cell mixture was incubated at room temperature for 2.5 h with shaking and the cells were separated from free ^3H-PGD2 and transferred onto a filter plate using a cell harvester. Radioactivity bound to the cells was measured on a liquid scintillation counter. Nonspecific binding was determined in the presence of […] of unlabeled PGD2.

IC50 (human DP) [nM] | IC50 (human CRTH2) [nM] | SMILES
1000 to 15000 | 100 to 1000 | O=C(O)Cc1ccc(Oc2cc3c(cc2NS(=O)(=O)c2ccc(Cl)cc2)C(=O)NC3=O)c(Cl)c1 [Example 30, 2-(3-Chloro-4-(6-(4-chlorophenylsulfonamido)-1,3-dioxoisoindolin-5-yloxy)phenyl)acetic acid]
< 10 | 10 to 100 | COc1cc(CC(=O)O)ccc1Oc1ccc2[nH]c(C)cc2c1NS(=O)(=O)c1ccc(Cl)cc1Cl [Example 1, 2-(4-(4-(2,4-Dichlorophenylsulfonamido)-2-methyl-1H-indol-5-yloxy)-3-methoxyphenyl)acetic acid]
